According to patent US7041685B2, “Substituted 3-aryl-5-aryl-[1,2,4]-oxadiazoles and analogs as activators of caspases and inducers of apoptosis and the use thereof” (Cytovia, Inc., priority 2001, dated 2006):

How the values were obtained:
SK-Br-3 = assay: Cell proliferation assay (GI50), SK-Br-3; format: cell-based; conditions: Homo sapiens; SK-Br-3, breast cancer cell line, 48 h
Procedure: (§1) T-47D and SKBr-3 cells were grown and harvested as in Example 121. An aliquot of 90 μL of cells (2. 2×10^4 cells/mL) was added to a well of a 96-well microtiter plate containing 10 μl of a 10% DMSO in RPMI-1640 media solution containing 1 nM to 100 μM of 5-(3-chloro-thiophen-2-yl)-3-(4-trifluoromethyl-phenyl)-[1,2,4]-oxadiazole (0.1 nM to 10 μM final). An aliquot of 90 μL of cells was added to a well of a 96-well microtiter plate containing 10 μL of a 10% DMSO in RPMI-1640 media solution without compound as the control sample for maximal cell proliferation (AMax). The samples were mixed by agitation and then incubated at 37° C. for 48 h in a 5% CO2—95% humidity incubator. After incubation, the samples were removed from the incubator and 20 μL of CellTiter 96 AQUEOUS One Solution Cell Proliferation™ reagent (Promega) was added. The samples were mixed by agitation and incubated at 37° C. for 2-4 h in a 5% CO2—95% humidity incubator. Using an absorbance plate reader (Model 1420 Wallac Instruments), an initial reading (T=0) was made approximately 1-2 min after addition of the solution, employing absorbance at 490 nm. This determines the possible background absorbance of the test compounds. No absorbance for 5-(3-chloro-thiophen-2-yl)-3-(4-trifluoromethyl-phenyl)-[1,2,4]-oxadiazole was found at 490 nm. After the 2-4 h incubation, the samples were read for absorbance as above (ATest). […]

ZR-75-1 = assay: Cell proliferation assay (GI50), ZR-75-1; format: cell-based; conditions: Homo sapiens, ZR75-1, 48 h
Procedure: [The source words this procedure for another cell line and reports this cell line under the same test.] as §1

T-47D [1] = assay: Cell proliferation assay (GI50), T-47D; format: cell-based; conditions: Homo sapiens, T47D, 48 h
Procedure: as §1

NCI-H23 = assay: Cell proliferation assay (GI50), NCI-H23; format: cell-based; conditions: Homo sapiens; NCI-H23, non-breast cancer cell line, 48 h
Procedure: [The source words this procedure for another cell line and reports this cell line under the same test.] as §1

Panc-1 = assay: Cell proliferation assay (GI50), Panc-1; format: cell-based; conditions: Homo sapiens; Panc-1, non-breast cancer cell line, 48 h
Procedure: [The source words this procedure for another cell line and reports this cell line under the same test.] as §1

PC-3 = assay: Cell proliferation assay (GI50), PC-3; format: cell-based; conditions: Homo sapiens; PC-3, non-breast cancer cell line, 48 h
Procedure: [The source words this procedure for another cell line and reports this cell line under the same test.] as §1

T-47D [2] = assay: Caspase cascade activation assay (fluorogenic N-(Ac-DEVD)-N'-ethoxycarbonyl-R110 substrate) in T-47D cells; format: cell-based, Human; conditions: 48 h incubation; for Caspase Activity Ratio: ratio of net RFU of compound to control; for EC50: Homo sapiens, T47D, read-out: Caspase Potency EC50
Procedure: Human breast cancer cell lines T-47D and ZR-75-1 were grown according to media component mixtures designated by American Type Culture Collection +10% FCS (Invitrogen Corporation), in a 5% CO2—95% humidity incubator at 37° C. T-47D and ZR-75-1 cells were maintained at a cell density between 50 and 80% confluency at a cell density of 0.1 to 0.6×10^6 cells/mL. Cells were harvested at 600×g and resuspended at 0.65×10^6 cells/mL into appropriate media +10% FCS. An aliquot of […] of cells was added to a well of a […] microtiter plate containing 2.5 μl of a 10% DMSO in RPMI-1640 media solution containing 0.16 to 100 μM of 5-(3-chloro-thiophen-2-yl)-3-(4-trifluoromethyl-phenyl)-[1,2,4]-oxadiazole or other test compound (0.016 to 10 μM final). An aliquot of 22.5 μL of cells was added to a well of a […] microtiter plate containing 2.5 μl of a 10% DMSO in RPMI-1640 media solution without test compound as the control sample. The samples were mixed by agitation and then incubated at 37° C. for 48 h in a 5% CO2—95% humidity incubator. After incubation, the samples were removed from the incubator and 25 μL of a solution containing 14 μM of N-(Ac-DEVD)-N′-ethoxycarbonyl-R110 (SEQ ID No.:1) fluorogenic substrate (Maxim, Inc.; WO99/18856), 20% sucrose (Sigma), 20 mM DTT (Sigma), 200 mM NaCl (Sigma), 40 mM Na PIPES buffer pH 7.2 (Sigma), and 500 μg/mL lysolecithin (Calbiochem) was added. The samples were mixed by agitation and incubated at room temperature. Using a fluorescent plate reader (Model SpectraMax Gemini, Molecular Devices), an initial reading (T=0) was made approximately 1-2 min after addition of the substrate solution, employing excitation at 485 nm and emission at 530 nm, to determine the background fluorescence of the control sample. After the 3 h incubation, the samples were read for fluorescence as above (T=3 h).
The Relative Fluorescence Unit values (RFU) were used to calculate the sample readings as follows: RFU(T=3 h)−Control RFU(T=0)=Net RFU(T=3 h)
The activity of caspase cascade activation was determined by the ratio of the net RFU value for 5-(3-chloro-thiophen-2-yl)-3-(4-trifluoromethyl-phenyl)-[1,2,4]-oxadiazole or other test compound to that of control samples. The EC50 (nM) was determined by a sigmoidal dose-response calculation (Prism 2.0, GraphPad Software Inc.).

SW-620 = assay: Cell proliferation assay (GI50), SW-620; format: cell-based; conditions: Homo sapiens; SW-620, non-breast cancer cell line, 48 h
MX-1 = assay: Cell proliferation assay (GI50), MX-1; format: cell-based; conditions: Homo sapiens, MX1; MX-1, breast cancer cell line, 48 h
Procedure: [The source words this procedure for another cell line and reports this cell line under the same test.] as §1

DLD-1 = assay: Cell proliferation assay (GI50), DLD-1; format: cell-based; conditions: Homo sapiens; DLD-1, colon cancer cell line, 48 h
K562 = assay: Cell proliferation assay (GI50), K562; format: cell-based; conditions: Homo sapiens; K562, non-breast cancer cell line, 48 h
Procedure: [The source words this procedure for another cell line and reports this cell line under the same test.] as §1

MX-1 cells = assay: Clonogenic survival of MX-1 solid tumor cells; format: cell-based; conditions: Homo sapiens, MX1, 48 h treatment, colonies counted after 7-10 days, read-out: IC50 of colony forming ability (clonogenic survival)
Procedure: MX-1 cells were grown according to the conditions recommended by American Type Culture Collection. In a well of a 96 well plate, 30,000 cells were seeded and treated with compound at the indicated concentrations for 48 h in a 5% CO2—95% humidity incubator at 37° C. Control wells were treated with the same amount of solvent (DMSO) as the compound samples. After the indicated treatment time, the supernatant was removed to a sterile culture tube and the wells washed with phosphate buffered saline, and the adherent cells trypsinized for 5 min. The trypsinzed cells were added to the culture supernatant, cells were collected (1,200 rpm, 10 min), washed with phosphate buffered saline, and resupended in fresh media. The cells were counted for trypan blue negative cells, and the cells diluted with fresh media to 1,000 cells/mL. To a well of a 24-well plate, 0.1 mL of the cell suspension was added along with 1 mL of fresh media (cell suspensions were passed through a 22G needle several times just before plating to form single cell suspensions). Plates are incubated in a 5% CO2—95% humidity incubator at 37° C. for 7-10 days. Colonies are counted when the sizes reached greater than 50 cells per colony. […] Colonies are rinsed with water and the colonies counted and the fraction surviving expressed as the percentage of the number of control colonies.

Row | GI50 (SK-Br-3) | GI50 (T-47D [1]) | GI50 (NCI-H23) | GI50 (Panc-1) | GI50 (PC-3) | EC50 (T-47D [2]) | GI50 (SW-620) | GI50 (DLD-1) | GI50 (K562) | Structure (SMILES) | GI50 (ZR-75-1) | Caspase Activity Ratio (T-47D [2]) | GI50 (MX-1) | IC50 (MX-1 cells)
1 | 0.02 µM | 0.3 µM | > 10 µM | > 10 µM | > 10 µM | 2.15 µM | > 10 µM | 0.04 µM | > 10 µM | Fc1ccc(-c2noc(-c3sccc3Cl)n2)cc1 [Example 5, 5-(3-Chloro-thiophen-2-yl)-3-(4-fluoro-phenyl)-[1,2,4]-oxadiazole] | 0.4 µM | 19.7 | 0.4 µM | 
2 |  |  |  |  |  | 5.35 µM |  |  |  | FC(F)(F)c1ccc(-c2noc(-c3sccc3Cl)n2)cc1 [Example 4, 5-(3-Chloro-thiophen-2-yl)-3-(4-trifluoromethyl-phenyl)-[1,2,4]-oxadiazole] |  | 4.2 |  | ~1.05 µM
3 |  |  |  |  |  | 5 µM |  |  |  | O=[N+]([O-])c1ccc(-c2noc(-c3sccc3Cl)n2)cc1 [Example 6, 5-(3-Chloro-thiophen-2-yl)-3-(4-nitro-phenyl)-[1,2,4]-oxadiazole] |  | 3.8 |  | 
4 |  |  |  |  |  | 0.865 µM |  |  |  | Clc1ccc(-c2noc(-c3sccc3Cl)n2)c(Cl)c1 [Example 7, 5-(3-Chloro-thiophen-2-yl)-3-(2,4-dichloro-phenyl)-[1,2,4]-oxadiazole] |  | 4.1 |  | 
5 | 0.02 µM | 0.25 µM | > 10 µM | > 10 µM | > 10 µM | 3.61 µM | > 10 µM | 0.035 µM | > 10 µM | Clc1ccc(-c2noc(-c3sccc3Cl)n2)cc1 [Example 1, 3-(4-Chloro-phenyl)-5-(3-chloro-thiophen-2-yl)-[1,2,4]-oxadiazole] | 0.2 µM | 16.9 | 0.3 µM | 
